Test results: patent publication US5858992A, “Non-reducing saccharides, their preparation and use” (Kabushiki Kaisha Hayashibara Seibutsu Kagaku Kenkyujo, priority 1995, dated 1999)

Experiments:
[1] = system: Bacteroides vulgatus JCM 5826; test: Assimilation test by intestinal microorganism; format: cell-based; details: 0.5 w/v % saccharide in PYF broth, 37° C., 96 hours; free of sugar: -
[2] = system: Bacteroides distasonis JCM 5825; test: Assimilation test by intestinal microorganism; format: cell-based; details: 0.5 w/v % saccharide in PYF broth, 37° C., 96 hours; free of sugar: -
[3] = system: Streptococcus faecalis IAM 10065; test: Assimilation test by intestinal microorganism; format: cell-based; details: 0.5 w/v % saccharide in PYF broth, 37° C., 96 hours; free of sugar: -
[4] = system: Lactobacillus fermentum IFO 3959; test: Assimilation test by intestinal microorganism; format: cell-based; details: 0.5 w/v % saccharide in PYF broth, 37° C., 96 hours; free of sugar: -
[5] = system: Clostridium butyricum JCM 1391; format: cell-based; details: 0.5 w/v % saccharide in PYF broth, 37° C., 96 hours; free of sugar: -
[6] = system: Escherichia coli IFO 3301; test: Assimilation test by intestinal microorganism; format: cell-based; details: 0.5 w/v % saccharide in PYF broth, 37° C., 96 hours; free of sugar: -
Salivary amylase = biological target: T1, Salivary amylase (Homo sapiens, UniProt P0DUB6); test: in vitro
T1 sequence (P0DUB6 16-511): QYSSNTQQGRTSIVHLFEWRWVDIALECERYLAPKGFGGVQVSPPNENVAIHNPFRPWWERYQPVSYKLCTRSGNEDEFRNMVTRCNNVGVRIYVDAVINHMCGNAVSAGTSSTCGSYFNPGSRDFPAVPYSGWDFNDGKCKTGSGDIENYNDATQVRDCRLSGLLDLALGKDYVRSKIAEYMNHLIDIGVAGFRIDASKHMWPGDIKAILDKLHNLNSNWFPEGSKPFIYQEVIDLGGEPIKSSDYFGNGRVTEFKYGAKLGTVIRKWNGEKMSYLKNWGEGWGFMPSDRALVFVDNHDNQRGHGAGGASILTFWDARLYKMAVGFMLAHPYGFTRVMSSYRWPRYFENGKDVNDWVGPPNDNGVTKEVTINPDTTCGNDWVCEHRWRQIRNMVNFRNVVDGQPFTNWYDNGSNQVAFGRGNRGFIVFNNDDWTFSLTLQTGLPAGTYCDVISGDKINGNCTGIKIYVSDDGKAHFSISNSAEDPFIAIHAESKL

[7] = system: Bifidobacterium infantis JCM 1222; test: Assimilation test by intestinal microorganism; format: cell-based; details: 0.5 w/v % saccharide in PYF broth, 37° C., 96 hours; free of sugar: -
[8] = system: Eubacterium aerofaciens ATCC 25986; test: Assimilation test by intestinal microorganism; format: cell-based; details: 0.5 w/v % saccharide in PYF broth, 37° C., 96 hours; free of sugar: -
[9] = system: Bifidobacterium animalis JCM 1190; test: Assimilation test by intestinal microorganism; format: cell-based; details: 0.5 w/v % saccharide in PYF broth, 37° C., 96 hours; free of sugar: -
in vitro [10] = details: small intestinal mucosa enzyme
[11] = system: Clostridium perfringens JCM 3816; format: cell-based; details: 0.5 w/v % saccharide in PYF broth, 37° C., 96 hours; free of sugar: -
[12] = Maillard reaction (coloration with glycine); format: physicochemical; details: 10 w/v % saccharide, one w/v % glycine, 50 mM phosphate buffer pH 7.0, 100° C. for 90 min, 1-cm light-path cell
[13] = system: Streptococcus sobrinus ATCC 27351; test: Acid formation by dental caries-inducing microorganisms; details: for pH at each fermentation time (min): living wet cells, 0.02M saccharide, Stephen buffer pH 7.0, 37° C.
[14] = system: Bifidobacterium adolescentis JCM 1275; test: Assimilation test by intestinal microorganism; format: cell-based; details: 0.5 w/v % saccharide in PYF broth, 37° C., 96 hours; free of sugar: -
[15] = system: Bacteroides uniformis JCM 5828; test: Assimilation test by intestinal microorganism; format: cell-based; details: 0.5 w/v % saccharide in PYF broth, 37° C., 96 hours; free of sugar: -
[16] = system: Peptostreptococcus prevotii ATCC 9321; test: Assimilation test by intestinal microorganism; format: cell-based; details: 0.5 w/v % saccharide in PYF broth, 37° C., 96 hours; free of sugar: -
[17] = system: Bifidobacterium longum JCM 1217; test: Assimilation test by intestinal microorganism; format: cell-based; details: 0.5 w/v % saccharide in PYF broth, 37° C., 96 hours; free of sugar: -
[18] = system: Bifidobacterium breve JCM 1192; test: Assimilation test by intestinal microorganism; format: cell-based; details: 0.5 w/v % saccharide in PYF broth, 37° C., 96 hours; free of sugar: -
Pancreatic juice amylase = biological target: T2, Pancreatic juice amylase (Homo sapiens, UniProt P04746); test: in vitro
T2 sequence (P04746 16-511): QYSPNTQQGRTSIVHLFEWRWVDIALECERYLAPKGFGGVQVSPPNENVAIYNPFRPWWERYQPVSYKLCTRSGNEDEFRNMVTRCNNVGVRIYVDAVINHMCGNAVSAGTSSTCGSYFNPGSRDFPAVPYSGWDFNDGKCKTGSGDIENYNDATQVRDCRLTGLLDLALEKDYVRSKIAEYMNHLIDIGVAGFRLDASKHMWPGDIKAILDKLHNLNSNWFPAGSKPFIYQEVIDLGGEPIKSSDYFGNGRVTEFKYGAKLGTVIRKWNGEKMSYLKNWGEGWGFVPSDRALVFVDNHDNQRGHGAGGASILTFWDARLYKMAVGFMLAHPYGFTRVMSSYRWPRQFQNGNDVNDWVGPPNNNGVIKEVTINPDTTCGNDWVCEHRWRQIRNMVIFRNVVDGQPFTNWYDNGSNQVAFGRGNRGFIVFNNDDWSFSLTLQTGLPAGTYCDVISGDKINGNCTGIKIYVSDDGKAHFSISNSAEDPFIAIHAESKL

[19] = system: Lactobacillus plantarum IFO 3070; test: Assimilation test by intestinal microorganism; format: cell-based; details: 0.5 w/v % saccharide in PYF broth, 37° C., 96 hours; free of sugar: -
glucosyltransferase = test: Inhibition of insoluble glucan formation by glucosyltransferase from dental caries-inducing microorganism; format: biochemical, Streptococcus sobrinus strain (ATCC 27351); details: sucrose plus test saccharide (one ml of one w/v % each), 37° C., 16 hours
Description: To a mixture solution consisting of one ml of one w/v % sucrose solution, one ml of one w/v % of a test saccharide solution, and 1.5 ml of 0.1M phosphate buffer (pH 6.8) was added 0.5 ml solution containing a crude glucosyltransferase specimen in a total protein content of 10 mg, and the mixture solution was placed in a small test tube which was then fixed and slanted to give a grade 30 degrees and allowed to react at 37° C. for 16 hours. The reaction mixture was transferred gently to another test tube and mixed with a solution obtained by washing carefully with 4 ml water the remaining substances adhered to the inner walls of the small test tube, and the mixture solution was centrifuged to obtain a precipitate as a non-adsorbed glucan. The amounts of the adsorbed- and non-adsorbed glucans thus obtained were respectively quantified by the anthrone-sulfuric acid method, and the total amount of them was regarded as the amount of the formed insoluble glucans. As a control system, a reaction system using water in place of the test saccharide solution, i.e. a reaction system using sucrose as a saccharide, was provided.

[20] = system: Bifidobacterium bifidum JCM 1255; test: Assimilation test by intestinal microorganism; format: cell-based; details: 0.5 w/v % saccharide in PYF broth, 37° C., 96 hours; free of sugar: -
[21] = system: Clostridium ramosum JCM 1298; test: Assimilation test by intestinal microorganism; format: cell-based; details: 0.5 w/v % saccharide in PYF broth, 37° C., 96 hours; free of sugar: -
in vitro [22] = details: gastric acid
[23] = system: Clostridium sporogenes JCM 1416; test: Assimilation test by intestinal microorganism; format: cell-based; details: 0.5 w/v % saccharide in PYF broth, 37° C., 96 hours; free of sugar: ±
Description: To evaluate the growth rate of and to judge the assimilability by the microorganisms, the resultant broth was diluted 5-fold, and the turbidity of the dilution was measured at a wavelength of 750 nm in a 1-cm light-path cell. […] The criteria were in Table 3, and the results were in Tables 4 and 5: […]

SMILES | Judgement of assimilation (turbidity at 750 nm, ×5) [1] | Judgement of assimilation (turbidity at 750 nm, ×5) [2] | Judgement of assimilation (turbidity at 750 nm, ×5) [3] | Judgement of assimilation (turbidity at 750 nm, ×5) [4] | Judgement of assimilation (turbidity at 750 nm, ×5) [6] | metabolised (Salivary amylase) [%] | Judgement of assimilation (turbidity at 750 nm, ×5) [7] | Judgement of assimilation (turbidity at 750 nm, ×5) [8] | Judgement of assimilation (turbidity at 750 nm, ×5) [9] | Judgement of assimilation (turbidity at 750 nm, ×5) [11] | Coloration degree (at a wavelength of 480 nm) [12] | pH reduction / acid fermentation, in words [13] | pH at each fermentation time (min) ([13]; 0 min) | pH at each fermentation time (min) ([13]; 5 min) | pH at each fermentation time (min) ([13]; 15 min) | pH at each fermentation time (min) ([13]; 30 min) | pH at each fermentation time (min) ([13]; 60 min) | pH at each fermentation time (min) ([13]; 90 min) | Judgement of assimilation (turbidity at 750 nm, ×5) [14] | Judgement of assimilation (turbidity at 750 nm, ×5) [15] | further results
OC[C@H]1O[C@H](O[C@H]2O[C@H](CO)[C@@H](O)[C@H](O)[C@H]2O)[C@H](O)[C@@H](O)[C@@H]1O [Trehalose, α,α-trehalose, reference compound] | + (0.15 or higher but less than 0.2) | ++ (0.2 or higher but less than 0.3) | + (0.15 or higher but less than 0.2) | + (0.15 or higher but less than 0.2) | - (Less than 0.1) | 0 | - (Less than 0.1) | - (Less than 0.1) | + (0.15 or higher but less than 0.2) | +++ (0.3 or higher) | 0.007 | moderate | 7.0 | 6.7 | 5.3 | 4.7 | 4.3 | 4.2 | + (0.15 or higher but less than 0.2) | ++ (0.2 or higher but less than 0.3) | Judgement of assimilation (turbidity at 750 nm, ×5) [5]: +++ (0.3 or higher); metabolised (in vitro [10]): 1.3%; Judgement of assimilation (turbidity at 750 nm, ×5) [16]: + (0.15 or higher but less than 0.2); Judgement of assimilation (turbidity at 750 nm, ×5) [17]: ++ (0.2 or higher but less than 0.3); Judgement of assimilation (turbidity at 750 nm, ×5) [18]: - (Less than 0.1); metabolised (Pancreatic juice amylase): 0%; Judgement of assimilation (turbidity at 750 nm, ×5) [19]: ++ (0.2 or higher but less than 0.3); Yield of non-adsorbed glucans (glucosyltransferase; sucrose alone control 923): 1,130 pg/ml; Yield of adsorbed glucans (glucosyltransferase; sucrose alone control 1,160): 772 pg/mL; Inhibitory percentage (%) on insoluble glucans formation (glucosyltransferase; vs sucrose alone): 8.7%; Judgement of assimilation (turbidity at 750 nm, ×5) [20]: + (0.15 or higher but less than 0.2); Judgement of assimilation (turbidity at 750 nm, ×5) [21]: + (0.15 or higher but less than 0.2)
OC[C@H]1O[C@H](OC[C@H]2OC(O)[C@H](O)[C@@H](O)[C@@H]2O)[C@H](O)[C@@H](O)[C@@H]1O (stereo partly shown) [Isomaltose, reference compound] | - (Less than 0.1) | + (0.15 or higher but less than 0.2) | + (0.15 or higher but less than 0.2) | - (Less than 0.1) | - (Less than 0.1) | 0 | +++ (0.3 or higher) | + (0.15 or higher but less than 0.2) | +++ (0.3 or higher) | ± (0.1 or higher but less than 0.15) | 0.938 | slight | 7.0 | 7.0 | 6.9 | 6.9 | 6.8 | 6.7 | +++ (0.3 or higher) | - (Less than 0.1) | degraded (in vitro [22]): 0%; Judgement of assimilation (turbidity at 750 nm, ×5) [16]: - (Less than 0.1); Judgement of assimilation (turbidity at 750 nm, ×5) [17]: ++ (0.2 or higher but less than 0.3); Judgement of assimilation (turbidity at 750 nm, ×5) [18]: +++ (0.3 or higher); Judgement of assimilation (turbidity at 750 nm, ×5) [23]: ± (0.1 or higher but less than 0.15); metabolised (Pancreatic juice amylase): 0.2%; Judgement of assimilation (turbidity at 750 nm, ×5) [19]: - (Less than 0.1); Judgement of assimilation (turbidity at 750 nm, ×5) [20]: + (0.15 or higher but less than 0.2); Judgement of assimilation (turbidity at 750 nm, ×5) [21]: - (Less than 0.1)
